Test results as given in patent publication US10316056B2, “Chemical compounds and use thereof for improving muscular quality” (BIOPHYTIS, priority 2014, dated 2019).

Legend:
[1] = tested on: S6 kinase (S6K1) phosphorylation in C2C12 cells; test: Phosphorylation of the S6 kinase in C2C12 cells (ELISA pS6K T389), protein synthesis; format: cell-based, mouse; conditions: test compounds and 20E reference (10 μM); C2C12, 2 h
Description: After several experiments in which the C2C12 cells differentiated into myotubes were incubated in the presence of IGF-1 or 20E for 2 h 30 or 6 h, two screening tests were developed. Thus, the phosphorylation of the S6 protein kinase and the expression of the myostatin gene were studied in order to determine their modulation by a growth hormone or an ecdysone and to characterize these modulations from a statistical point of view.
The C2C12 myoblast cells (ATCC CRL-1772) are seeded into 6-well plates at a density of 170 000 cells per well and cultured in a DMEM medium containing glucose in a proportion of 4.5 g/l and supplemented with fetal calf serum (10%) and with antibiotics (penicillin and streptomycin). Forty-eight hours later, the myoblasts are induced to differentiate by partial serum depletion (2% instead of 10%) for 5 days. The cells are then placed in a medium which is glucose-depleted (DMEM containing 1 g/l of glucose) and serum-free in the presence of the test molecules or of the references (100 ng/ml IGF-1 or 10 μM 20E) for 2 h. At the end of the experiment, the cells are lysed in a commercial lysis buffer (Invitrogen FNN0011) supplemented with a commercial mixture of anti-proteases (Roche 05056489001). After centrifugation, the cytoplasmic fraction containing the soluble proteins is kept and the protein concentration is determined using a commercial kit (Biorad 500-0114), the principle of which is composed of assaying by the Lowry method. The assaying of the S6 kinase phosphorylation is carried out using a commercial ELISA (Enzyme Linked ImmunoSorbent Assay) kit (Cell signaling 7063). Briefly, 50 μg of protein lysate are deposited in the wells of a 96-well microplate and incubated overnight at 4° C. with the solution of antigen specific for the pS6 kinase threonine 389 antibody. The binding of the antigen to the bottom of the wells is done electrostatically. The solution of antibody to be assayed (pS6K T389) is then incubated at 37° C. in the wells for 2 hours. The antibodies bind specifically to the antigen. The wells are then washed with washing buffer in order to remove the antigen-specific primary antibodies to be assayed which are in excess. The third step consists in binding the detection antibody. The solution of detection antibodies is incubated at 37° C. in the wells for 1 hour. The wells are then washed in order to remove the excess detection antibodies. It should be noted that the detection antibodies are coupled to an enzyme which, in the presence of its substrate, converts it into a reaction product that can be detected and measured by virtue of the appearance of a coloration. […] The appearance of a blue coloration in the substrate indicates the presence of the antibody to be assayed. In order to prevent any saturation phenomenon, a stop solution (generally containing […]) is added and brings about a change in coloration, which goes from blue to yellow. The strength thereof is proportional to the amount of enzyme present and thus to the concentration of antibody sought. The strength of the signal is measured using spectrophotometry at a wavelength of 450 nm.

[2] = rat, in vivo, po
Description: The pharmacokinetics of the compounds were evaluated orally using male Wistar rats (Charles River). […] The novel compounds according to the invention were administered at a dose of 10 mg/kg of body weight in the form of a mixture of 4 to 6 products. After administration, the blood was sampled from the tail at t=0.25 h, 0.5 h, 1 h, 3 h, 6 h and 8 h. The blood samples were centrifuged and the plasmas removed.

[3] = tested on: Soleus muscle of C57BL/6 mice subjected to a high-fat diet; test: Mice subjected to a high-fat diet: weight and amount of proteins of the Soleus muscle; format: in vivo, C57BL/6J mice; conditions: 5 mg/kg orally, high-fat diet for 6 weeks, compared with the control group
Description: (§1) The 20E as comparative compound and the compounds according to the invention (Nos. 51 and 93) were administered orally, at a dose of 5 mg/kg of body weight, to 12-week-old C57BL/6J mice subjected to a high-fat diet for 6 weeks. The effect of the compounds on the weight and the amount of proteins of the Soleus muscle and also the transcripts of genes involved in myogenesis were evaluated.
The amount of proteins is determined by first lysing the muscles sampled in a 0.1N NaOH solution with the FastPrep technique. The proteins are quantified by means of a colorimetric assay derived from the Lowry method.
(§2) The in vivo study is carried out by evaluating the effect of 20E as comparative compound and of the molecules according to the invention (Nos. 51 and 93) administered orally, at a dose of 5 mg/kg of body weight, to C57BL/6 mice subjected to a high-fat diet for 6 weeks. The effect of the molecules on the weight and the amount of proteins of the Soleus muscle and also the transcripts of genes involved in myogenesis were evaluated.

[4] = tested on: Myf5 gene transcripts; test: Mice subjected to a high-fat diet: Myf5 transcripts; format: in vivo, C57BL/6J mice; conditions: 5 mg/kg orally; high-fat diet for 6 weeks
Description: as §1
(§3) Myogenesis, which is the process for forming muscle tissues, is controlled by several myogenic transcription factors which act as end effectors of the signaling cascade and produce transcripts involved in the various stages of development. The roles of the transcription factors have been described in various journals (Sabourin and Rudnicki 2000 and Le Grand and Rudnicki 2007). The Pax7 protein (Paired-box protein 7) maintains a population of satellite cells in quiescence and, with Myf5 (Myogenic factor 5), plays a role in the expansion of activated myoblasts. The MyoD protein (Myoblast Determination protein) appears to determine the differentiation potential of activated myoblasts, and cooperates with myogenin and the MEF2 (Myocyte Enhancer Factor 2) protein to control and bring about differentiation. Finally, MRF4 (Muscle-specific Regulatory Factor 4) is required for hypertrophy, even though it probably plays other roles. […]
(§4) The relative differences in gene expression between treatments are expressed as increase or decrease in the number of cycle times [Ct] compared with the control group, the [Ct] value of each gene having been standardized with the beta-actin gene.
as §2

[5] = tested on: myostatin transcript; test: Mice subjected to a high-fat diet: myostatin transcript of the Soleus muscle; format: in vivo, C57BL/6J mice; conditions: 5 mg/kg orally; high-fat diet for 6 weeks; FIG. 4
Description: as §1
In order to carry out the gene expression analysis, the muscle tissues were homogenized in a Trizol solution (500 μl), and the RNAs were extracted and purified using the phenol/chloroform method. An amount of […] of RNA was used as template for the synthesis of the first cDNA strand using oligo (dT)s as primers and the AMV reverse transcriptase enzyme as described by the supplier (Applied Biosystems 4368814). The q-PCRs were then carried out using a 7900HT machine equipped with a rapid system for real-time detection by PCR (Applied Biosystems) and the standard qPCR program (1 cycle of 95° C. for 15 min, 40 cycles of 95° C. for 15 s and 60° C. for 1 min, a 60-95° C. melt curve for the Sybergreen probes). The experiments are carried out in a Sybergreen SYBR master mix (Applied Biosystems) containing the 100 ng cDNA samples and a set of primers which bind to the two different exons and at a final concentration of 200 nM.
as §4, §2

[6] = tested on: MyoD transcripts; test: Mice subjected to a high-fat diet: MyoD transcripts of the Soleus muscle; format: in vivo, C57BL/6J mice; conditions: 5 mg/kg orally; high-fat diet for 6 weeks; FIG. 5A
Description: as §1, §3, §4, §2

[7] = tested on: myogenin transcripts; test: Mice subjected to a high-fat diet: myogenin transcripts of the Soleus muscle; format: in vivo, C57BL/6J mice; conditions: 5 mg/kg orally; high-fat diet for 6 weeks; FIG. 5B
Description: as §1, §3, §4, §2

[8] = tested on: muscle cells derived from the C2C12 murine line; conditions: literature, Kazi et al., 2010; cited from earlier work
[9] = tested on: phosphorylations that activate proteins such as Akt or S6 kinase; conditions: could reach; literature, Kazi et al., 2010; cited from earlier work

Row | Molecule | S6K1 phosphorylation level [1] [%] | Cexp (coefficient of exposure) [2] | AUC ([2]; 50 mg/kg) [ng·h/mL] | Cmax ([2]; 50 mg/kg) [ng/mL] | Tmax ([2]; 50 mg/kg) [min] | weight of the Soleus muscle ([3]; FIG. 3A) | amount of proteins of the Soleus muscle ([3]; FIG. 3B) | transcripts of the Myf5 gene [4] | myostatin expression in the Soleus muscle [5] | transcripts of the MyoD gene [6] | transcript of the myogenin gene [7] | increase in protein synthesis [8] [%] | stimulation of targets of the signaling pathway [9]
1 | CC(C)(O)CC[C@@H](O)[C@](C)(O)[C@H]1CC[C@@]2(O)C3=CC(=O)[C@@H]4C[C@@H](O)[C@@H](O)C[C@]4(C)[C@H]3CC[C@]12C [Compound 20E, 20-hydroxyecdysone, reference compound] | 120 | 1.0 | 382 | 68 | 30 | increases | increases | increase | comparably inhibit | increase | increase | – | –
2 | IGF-1: reference product (100 ng/ml) that stimulates protein synthesis | – | – | – | – | – | – | – | – | – | – | – | 20 | about 200%
